“Also recorded” adds a separate entry of the source.
What was measured:
[1] = tested on: organ of Corti explants (hair cells / supporting cells); assay: Cochlear explant culture with Pa2g4/EBP1 inhibitors: MYO7+ / Atoh1-nGFP cell generation; format: cell-based, mouse; conditions: for Increase in number of MYO7+ cells in the apex / Atoh1-nGFP-positive cells near OHCs: Atoh1-nGFP mouse cochlear explants; for Increase in number of MYO7+ cells in the apex: WS3 or WS6 treatment; for Atoh1-nGFP-positive cells near OHCs: gradient from apex to base; for MYO7+ cell counts at the apex region versus controls: P1-P2 mouse organ of Corti explants, 48-72 hours, WS3 0.01 μM or WS6 0.5 μM vs DMSO, mean per 100 μm, WS6 p=0.0043, WS3 p=0.0060; for Concentration at which effects were observed in culture: application in culture
Procedure: (§1) Cochleae were isolated from postnatal day 1-day 2 wild type or Atoh1-nGFP mice (Lumpkin, Collisson et al. 2003). The organ of Corti was isolated from the otic capsule, and the nerve tissue and stria vascularis were removed. The organ of Corti was plated on a glass coverslip coated with a 1:10 mixture of Matrigel and DMEM/F12 to promote attachment. Cochlear explants were cultured in a serum-free 1:1 mixture of DMEM and F12, supplemented with Glutamax, N2, and B27. For the treated cochlea, small molecules were added to this culture medium, while the control cochlea was cultured with medium containing DMSO at the same concentration used in the treatments. To measure proliferation, explants were treated with EdU (10 μg/ml) along with the drug or DMSO. Drug-treated explants were cultured for 3 days then fixed in 4% PFA for 30 min.
(§2) To quantify WS3 and WS6-treated cochleae, the length of the sensory epithelium was measured using ImageJ software with the overall length determined from the hook to the apex in each sample. The number of myosin VIIa-positive cells or Edu positive cells in the supporting cell region were manually counted. The total number of cells was counted in each of four cochlear segments of 1200-1400 μm (apical, mid-apical, mid-basal, and basal), density (cells per 100 μm) was then calculated for each segment. Statistical analyses were performed using Prism version 7.0 software; comparisons among groups were made by one-way ANOVA followed by Dunnett's multiple-comparisons test for comparing the mean of each group with the mean of a control group.
Our findings with the conditional ErbB2 activation animal models have shown that the constitutive activation of ERBB2 can result in SC expansion and ectopic MYO7+ cell generation. To further validate the crucial role of ERBB2 activation, inventors turned to small molecules to pharmacologically activate the ErbB pathway and determine their effect on SC expansion and HC differentiation. Two compounds, WS3 and WS6, were chosen, as these two analogues promoted cell proliferation in growth arrested cells such as […] and retinal pigment epithelial (RPE) cells (Shen, Tremblay et al. 2013, Swoboda, Elliott et al. 2013). […] To test the effect of these drugs on SCs, they were applied to cochlear explants derived from Atoh1-nGFP reporter mice (Lumpkin, Collisson et al. 2003). […] The number of MYO7+ cells in the apex was increased by 20 cells/100 μm (FIGS. 7A and 7B).

[2] = tested on: supporting cells in organ of Corti explants; assay: Cochlear explant culture with Pa2g4/EBP1 inhibitors: EdU supporting cell proliferation; format: cell-based; conditions: P1-P2 wild type mouse explants, 48-72 hours, WS3 0.01 μM or WS6 0.5 μM vs DMSO, gradient from apex to base
Procedure: as §1
as §2, with “Statistical analyses were performed using Prism version 7.0 software; comparisons among groups were made by one-way ANOVA followed by Dunnett's multiple-comparisons test for comparing the mean of each group with the mean of a control group.” left out

p-ERBB2 in MCF-7 cells = assay: Western blot of ERBB2 pathway activation with anti-p-ERBB2 antibody (Y1248); format: cell-based; conditions: MCF-7 breast cancer cells, treated for 15 minutes
Procedure: FIGS. 8A, 8A′. […] FIG. 8A. Images of the apex region of the P1-P2 organ of Corti cultured for 48-72 hours in the presence of DMSO, WS3 (0.01 μM), or WS6 (0.5 μM). MYO7a (green), SOX2 (red) and EdU (blue) are shown. IHC, inner hair cells; OHC, outer hair cells (FIG. 8A′) Cross section of organ of Corti from FIG. 8A at the yellow line. Scale bar: 25 microns. FIG. 8B. […] FIG. 8C. Western blot analysis of ERBB2 pathway activation was conducted using anti-p-ERBB2 antibody (Y1248) in MCF-7 cells. Cells were treated with WS3 or WS6 for 15 minutes.
To determine if the drug treatments promoted SC proliferation, the compound were applied to cochlear explants from wild type mice at P1-P2 with EdU present to label the proliferating cells. […] To confirm that the effect of the drugs was mediated through ERBB2 activation, the ERBB2 phosphorylation was analyzed using the protein lysates from cochlear explant.

rodent diabetes model = conditions: by promoting cell proliferation, Shen, Tremblay et al. 2013; cited from earlier work
[3] = tested on: retinal pigment epithelium (RPE) cells; conditions: Swoboda, Elliott et al. 2013; cited from earlier work

Row | Structure (SMILES) | Increase in number of MYO7+ cells in the apex [1] | Atoh1-nGFP-positive cells near OHCs [1] | MYO7+ cell counts at the apex region versus controls [1] | Concentration at which effects were observed in culture [1] | EdU+ cells in the SOX2+ supporting cell region [2] | p-ERBB2 level (p-ERBB2 in MCF-7 cells) | β-cell mass (rodent diabetes model) | Expansion of retinal pigment epithelium (RPE) cells [3]
1 | CN1CCN(Cc2ccc(NC(=O)Cc3ccc(Oc4cc(NC(=O)C5CC5)ncn4)cc3)cc2C(F)(F)F)CC1 [WS6] | 20 cells/100 μm | additional Atoh1-nGFP-positive cells near OHCs were seen | Significantly more MYO7+ cells | 500 nM | A large number of EdU+ cells were observed; also recorded: significantly more SCs | elevated | increases p3-cell mass | 
2 | CN1CCN(Cc2ccc(NC(=O)Nc3ccc(Oc4cc(NC(=O)C5CC5)ncn4)cc3)cc2C(F)(F)F)CC1 [WS3] | 20 cells/100 μm | additional Atoh1-nGFP-positive cells near OHCs were seen | Significantly more MYO7+ cells | 10 nM | A large number of EdU+ cells were observed; also recorded: significantly more SCs | elevated |  | expands retinal pigment epithelium (RPE) cells

Reference: US20200093824A1, “ERBB3 Activators in Hearing Restoration” (University of Rochester, priority 2018, published 2020)
